Results reported in patent publication EP0379367B1, “Method for the prevention of intrinsically aged skin with retinoids” (ORTHO PHARMACEUTICAL CORPORATION, priority 1989, dated 1990).
“Also recorded” adds a separate entry of the source.

Key:
[1] = system: Female Albino hairless mice (Skh-hairless-1); conditions: mouse, in vivo
Method: (§1) Lifetime Application of all-trans-Retinoic Acid to Albino Hairless Mice.
(§2) Female Albino hairless mice (Skh-hairless-1), age 8-11 weeks, were treated topically, three times a week, for the remainder of their life span as follows:
(§3) The mice were examined monthly for skin changes and possible weight loss that might indicate a toxic effect.
(§4) Toward the end of the study, mice were photographed to show the condition of the skin. A few mice were sacrificed at about 70, 80 and 90 weeks, with dorsal skin taken for histochemical evaluation. The remainder were allowed to live out their life span which ranged from 91-106 weeks and were biopsied when moribound, if possible. The histochemical stains were: H&E for general histology, Luna's for elastic fibers, Van Gieson's for collagen and Mowry's for proteoglycans.

[2] = system: Female Albino hairless mice (Skh-hairless-1); test: Lifetime topical application of all-trans-retinoic acid to albino hairless mice (toxicity, clinical and histochemical skin observations); conditions: for clinical observations: condition of the skin: lifetime application, mice 91-106 weeks of age at photograph (Figure 1), versus vehicle and untreated controls
Method: as §1, §2, §3, §4

CC1=C(/C=C/C(C)=C/C=C/C(C)=C/C(=O)O)C(C)(C)CCC1 [all-trans-retinoic acid]
adverse or unusual effects at biopsy and necropsy [1]: no indication that the mice suffered any adverse or unusual effects | weights of mice [1]: no difference in the weights | mortality ([2]; 0.025% (100 µl) topically, three times a week, remainder of life span, compared with cream vehicle and untreated groups): no difference in mortality | clinical observations: condition of the skin [2]: thinner, pinker, more uniform skin than the controls | clinical observations: condition of the skin ([2]; listed as All-trans-retinoic acid): thinner, pinker, more uniform skin than controls or untreated mice | collagen in the repair zones (Van Gieson's stain) ([2]; lifetime treatment): stained mainly as normal, mature collagen | dermal inflammation (H&E) ([2]; lifetime treatment): mild inflammatory infiltrate in the mid-dermis | epidermal cell morphology (H&E) ([2]; lifetime treatment): plump, cytologically normal and have abundant cytoplasm; also recorded: plump, cytologically normal and had an abundant cytoplasm | granular layer of epidermis (H&E) ([2]; lifetime treatment): about 4 cell layers | elastic fibers (Luna's stain) ([2]; lifetime treatment (Figure 4)): increased amount of new elastic fibers | glycosamino-/proteoglycan deposits at the dermal-epidermal junction (Mowry's stain) ([2]; lifetime treatment, compared with the other groups): Fewer deposits | epidermis (H&E), thickness ([2]; lifetime treatment, hyperplastic, controls had the usual 2-4 compressed-looking cells): about 8 cell layers | new collagen (H&E; Luna's stain) ([2]; lifetime treatment, no repair areas in controls): Areas of new collagen were apparent | granular layer of epidermis (H&E, Figure 4) ([2]; lifetime treatment, sample from a mouse 95 weeks of age): approximately 4 cells | dermal glycosaminoglycans or proteoglycans (Mowry's stain) ([2]; lifetime treatment, stated for all groups): little or no increase | blood vessels (H&E) ([2]; lifetime treatment, unlike in the controls): abundance of new blood vessels; also recorded: readily seen | toxic effects ([2]; treatment over a lifetime): no detectable toxic effects
